Experiments:
[1] = tested on: rat peritoneal mesothelial cells; settings: previous finding, ref [10]; cited from earlier work
[2] = Solubility in water; type: physicochemical
[3] = tested on: phospho-MEK1/2, phospho-Erk1/2, FNEDA, αSMA, phospho-Smad2 (linker); test: Western analysis of TGF-β1 treated rat peritoneal mesothelial cells; type: cell-based; settings: Western blot, FIG. 2
Procedure: These insights led us to explore the potential mechanisms of action of trametinib using Western blotting analyses (FIG. 2). […] These increases in gene expression of phosphor-Erk 1/2, FNEDA, αSMA and p-SMAD2 (linker) were blocked by as low a concentration of trametinib as 2 nM (FIG. 2).
The experiments in this study were approved by the Institutional Animal Care and Use Committee at Thomas Jefferson University, and were performed in accordance with the National Institutes of Health guidelines for the care and handling of laboratory animals. RPMCs were isolated and cultured as described previously. […]
RPMCs were lysed in ice-cold modified RIPA buffer with protease inhibitor cocktail (50 mM/L Tris-HCl, 1% NP-40, 0.25% Na-deoxycholate, 150 mM/L NaCl, 1 mM/L EDTA, 1 mmol/L phenylmethyl sulfonyl fluoride, 1 mM/L sodium orthovanadate, 1 mM/L NaF, pH 7.4). Equivalent amounts of homogenate (50 μg/well), determined by Coomassie blue assay, were separated by sodium dodecyl sulfate polyacrylamide gel electrophoresis (SDS-PAGE), transferred to either nitrocellulose or PVDF membranes, and detected by SuperSignal West Femto or Pico chemiluminescence.

[4] = tested on: C57BL/6 mice; test: Cecal abrasion model of intra-abdominal adhesion formation, drug by osmotic pump for eight days
Description: Mice were allowed to acclimate in the animal facility for at least one week prior to surgery, given free access to standard chow and water and a 12-h light-dark cycle in standard acrylic cages with wood chip bedding. Animals were randomly assigned into either an experimental group (laparotomy and cecal abrasion) or a control group (laparotomy only).
Briefly, mice underwent induction and maintenance anesthesia with 1-3% isofluorane with supplemental oxygen. After adequate sedation was achieved, mice were weighed and 0.1 mg/kg subcutaneous Buprenex (Hospira, Inc., Lake Forest, IL) was administered to ensure analgesia. The ventral surface was clipped along the midline and the skin was sterilized with betadine. A 2 cm midline incision was made subxiphoid to avoid injuring the bladder and the cecum was identified and externalized. The anti-mesenteric side of the cecum was gently swiped 30 times with gauze then returned to the abdomen. The incision was closed with a double layer of sutures with 2-0 silk [13]. […] In the drug escalation study, laparotomy and cecal abrasion were carried out as above as well as sub-dermal placement of the osmotic pumps.
Groups of 5 animals were given 0.1, 1.0 or 3.0 mg/kg animal weight of drug/day via osmotic pumps (Alzet Osmotic Pump 1002, Cupertino, CA) for eight days prior to sacrifice. The volume delivered/day was 6 ul of drug. Control mice underwent induction with anesthesia and laparotomy only. In addition, 5 animals underwent laparotomy and placement of the osmotic pumps which were filled with “drug vehicle (DMSO)” alone i.e., no drug. After 8 days of drug treatment, mice were euthanized under isofluorane anesthesia followed by cervical dislocation. Adhesions were examined by two independent practitioners. […]
Intestinal tissue was placed in Tissue-Tek O.C.T. Compound (Sakura Finetek, Torrance, CA) and immediately frozen in liquid nitrogen. […] Slides were mounted with DAPI Fluoromount-G (Southern Biotech) and fluorescence images were taken with a Zeiss epi-fluorescence microscope. […]

[5] = tested on: rat peritoneal mesothelial cells; test: TGF-β induced mesothelial/mesenchymal transition (MMT), cell morphology; type: cell-based; settings: trametinib alone, no TGF-β, five days
Procedure: Isolated mesothelial cells were incubated under control conditions without either TGF-β or trametinib, with TGF-β or trametinib alone, or with both TGF-β and trametinib for five days (FIGS. 1 and 2).
The experiments in this study were approved by the Institutional Animal Care and Use Committee at Thomas Jefferson University, and were performed in accordance with the National Institutes of Health guidelines for the care and handling of laboratory animals. RPMCs were isolated and cultured as described previously. Briefly, Sprague Dawley rats weighing 150 g-250 g, purchased from Jackson Laboratory, were injected intra-peritoneally with 30 ml of 0.25% trypsin/2.21 mM EDTA under Isoflurane anesthesia and were kept on the metal pad warmed to 37° C. for one hour; after which the abdominal fluid was collected and centrifuged at 300 g for 10 minutes. The isolated pelleted cells were re-suspended and cultured in DMEM/F12 medium supplemented with 10% (v/v) FBS at 37° C. in a humidified atmosphere of 5% CO2 in air. The RPMCs, from the fourth to seventh passages (split ratio 1:4), at 90% confluence were used for the experiments. The cells were treated either with 10 ng/ml of TGF-β1 (R&D systems) alone, or with TGF-β1 and the MEK1/2 inhibitor, Trametinib (2 or 5 nM).

solubility in water [2]	average decrease in weight ([4]; 1.0 mg dose, eight day period of drug delivery)	average increase in weight ([4]; 3.0 mg dose, eight day period of drug delivery)	wound closure and healing at laparotomy site ([4]; highest drug dose (3 mg/kg/day))	Compound	effect on rat peritoneal mesothelial/mesenchymal transition induced by TGF-β [1]	concentration blocking TGF-β induced increases of phospho-Erk1/2, FNEDA, αSMA and p-SMAD2 (linker) [3]	effect of drug alone on cell appearance / toxicity [5]
–	–	–	–	N#CC(=C(/N)Sc1ccccc1N)/C(C#N)=C(\N)Sc1ccccc1N [U0126]	blocked	–	–
minimally soluble in water	2.2%	0.5%	no effect on wound closure and healing	CC(=O)Nc1cccc(-n2c(=O)n(C3CC3)c(=O)c3c(Nc4ccc(I)cc4F)n(C)c(=O)c(C)c32)c1 [trametinib]	–	≤ 2 nM	no effect and no apparent toxic effects

Reference: US11998550B2, “Trametinib prevents mesothelial-mesenchymal transition and ameliorates abdominal adhesion and pulmonary fibrosis formation” (Thomas Jefferson University, priority 2017, dated 2024)
